Assay results reported in patent US10149879B2 (priority 2014, dated 2018).

Tests used:
[1] = tested on: 3T3-L1 cells; assay: Anti-oxidant activity in 3T3-L1 cells challenged with H2O2; type: cell-based; parameters: Anti-oxidant activity, cells challenged with H2O2: scale not given here; conditions: for Anti-oxidant activity, cells challenged with H2O2: 3T3-L1; for protection against H2O2 induced cellular oxidative damage: 3T3-L1 cells
Source text: Anti-Oxidant Activity in 3T3-L1 Cells Challenged with H2O2 Berberin and Palmatine
Anti-Oxidant Activity in 3T3-L1 Cells Challenged with H2O2 Berberin and Quercetin

[2] = tested on: βTC6 insulinoma cell; assay: Anti-oxidant activity in βTC6 insulinoma cell challenged with H2O2; type: cell-based; parameters: Anti-oxidant activity, cells challenged with H2O2: unit not given here; conditions: for Anti-oxidant activity, cells challenged with H2O2: βTC6
Source text: Anti-Oxidant Activity in βTC6 Insulinoma Cell Challenged with H2O2 Berberin and Quercetin—
Anti-Oxidant Activity in βTC6 Insulinoma Cell Challenged with H2O2 Berberin and Palmatine—

[3] = tested on: L6 cells; assay: Anti-oxidant activity in L6 cells challenged with H2O2; type: cell-based; parameters: Anti-oxidant activity, cells challenged with H2O2: unit not given here; conditions: for Anti-oxidant activity, cells challenged with H2O2: L6; for protection against H2O2 induced cellular oxidative damage: L6 cells
Source text: Anti-Oxidant Activity in L6 Cells Challenged with H2O2 Berberin and Palmatine
Anti-Oxidant Activity in L6 Cells Challenged with H2O2—Berberin and Quercetin

[4] = tested on: L6-myotubes; assay: Anti-diabetic activity (glucose consumption) in L6-myotubes; type: cell-based; parameters: Anti-diabetic activity (glucose consumption): unit not given here; conditions: for Anti-diabetic activity (glucose consumption): L6-myotubes, control 1.00
[5] = tested on: βTC6 insulinoma cell; assay: Cell viability assay in βTC6 insulinoma cell line; type: cell-based; conditions: βTC6, control 100.00
Source text: Cell Viability Assay in βTC6 Insulinoma Cell Lime Following—

[6] = tested on: 3T3-L1 cells; assay: Cell viability assay in 3T3-L1 cells; conditions: for Cell viability: 3T3-L1, control 100.00
[7] = comparison with positive standard

With `O=c1c(O)c(-c2ccc(O)c(O)c2)oc2cc(O)cc(O)c12` [Quercetin] the “Anti-oxidant activity, cells challenged with H2O2” value (shortened to “Anti-oxidant activity … with H2O2”) ([1]; Co-incubated, 0.1 pM, control 50.00) was 57.30 ± 1.70, the “Anti-oxidant activity … with H2O2” value ([1]; Co-incubated, 1 pM, control 50.00) was 65.00 ± 2.75 and the “Anti-oxidant activity … with H2O2” value ([1]; Co-incubated, 10 pM, control 50.00 ± 0.40) was 68.01 ± 2.75. The “Anti-oxidant activity … with H2O2” value ([1]; Co-incubated, 100 pM, control 50.00 ± 0.40) was 78.70 ± 3.50, the “Anti-oxidant activity … with H2O2” value ([1]; Co-incubated, 1 nM, control 50.00 ± 0.40) was 88.40 ± 1.90 and the “Anti-oxidant activity … with H2O2” value ([1]; Pre-incubated, 0.1 pM, control 50.00) was 61.00 ± 3.00. The “Anti-oxidant activity … with H2O2” value ([1]; Pre-incubated, 1 pM, control 50.00) was 65.00 ± 1.70, the “Anti-oxidant activity … with H2O2” value ([1]; Pre-incubated, 10 pM, control 50.00 ± 0.40) was 75.15 ± 2.99 and the “Anti-oxidant activity … with H2O2” value ([1]; Pre-incubated, 100 pM, control 50.00 ± 0.40) was 88.60 ± 2.60. The “Anti-oxidant activity … with H2O2” value ([1]; Pre-incubated, 1 nM, control 50.00 ± 0.40) was 94.15 ± 1.70, the “protection against H2O2 induced cellular oxidative damage” value (from here on “protection”) [1, 7] was “superior even at lower concentration” and the “Anti-oxidant activity … with H2O2” value ([2]; Co-incubated, 0.1 pM, control 55.64) was 60.31 ± 2.71. For the same compound, the “Anti-oxidant activity … with H2O2” value ([2]; Co-incubated, 1 pM, control 55.64) was 67.11 ± 2.71, the “Anti-oxidant activity … with H2O2” value ([2]; Co-incubated, 10 pM, control 55.64) was 70.10 ± 2.30 and the “Anti-oxidant activity … with H2O2” value ([2]; Co-incubated, 100 pM, control 55.64) was 80.72 ± 1.20. For the same compound, the “Anti-oxidant activity … with H2O2” value ([2]; Co-incubated, 1 nM, control 55.64) was 90.44 ± 1.94, the “Anti-oxidant activity … with H2O2” value ([2]; Pre-incubated, 0.1 pM, control 55.64) was 64.00 ± 2.10 and the “Anti-oxidant activity … with H2O2” value ([2]; Pre-incubated, 1 pM, control 55.64) was 68.38 ± 1.79. For the same compound, the “Anti-oxidant activity … with H2O2” value ([2]; Pre-incubated, 10 pM, control 55.64) was 77.51 ± 2.06, the “Anti-oxidant activity … with H2O2” value ([2]; Pre-incubated, 100 pM, control 55.64) was 81.63 ± 1.50 and the “Anti-oxidant activity … with H2O2” value ([2]; Pre-incubated, 1 nM, control 55.64) was 87.59 ± 1.95. The “Anti-oxidant activity … with H2O2” value ([3]; Co-incubated, 0.1 pM, control 61.10) was 57.50 ± 1.80, the “Anti-oxidant activity … with H2O2” value ([3]; Co-incubated, 1 pM, control 61.10) was 65.05 ± 2.80 and the “Anti-oxidant activity … with H2O2” value ([3]; Co-incubated, 10 pM, control 61.10) was 70.36 ± 2.96. For the same compound, the “Anti-oxidant activity … with H2O2” value ([3]; Co-incubated, 100 pM, control 61.10) was 78.18 ± 2.99, the “Anti-oxidant activity … with H2O2” value ([3]; Co-incubated, 1 nM, control 61.10) was 88.64 ± 1.99 and the “Anti-oxidant activity … with H2O2” value ([3]; Pre-incubated, 0.1 pM, control 61.10) was 63.60 ± 1.50. The “Anti-oxidant activity … with H2O2” value ([3]; Pre-incubated, 1 pM, control 61.10) was 68.02 ± 1.40, the “Anti-oxidant activity … with H2O2” value ([3]; Pre-incubated, 10 pM, control 61.10) was 75.12 ± 3.50 and the “Anti-oxidant activity … with H2O2” value ([3]; Pre-incubated, 100 pM, control 61.10) was 87.90 ± 1.60. The “Anti-oxidant activity … with H2O2” value ([3]; Pre-incubated, 1 nM, control 61.10) was 95.15 ± 0.99 and the “protection” value [3, 7] was “potent protection”.
With `COc1cc2c(cc1OC)-c1cc3ccc(OC)c(OC)c3c[n+]1CC2` [Palmatine] the “Anti-oxidant activity … with H2O2” value ([1]; Co-incubated, 10 pM, control 50.00) was 54.85 ± 2.20, the “Anti-oxidant activity … with H2O2” value ([1]; Co-incubated, 100 pM, control 50.00) was 57.18 ± 1.20 and the “Anti-oxidant activity … with H2O2” value ([1]; Co-incubated, 1 nM, control 50.00) was 59.87 ± 2.70. The “Anti-oxidant activity … with H2O2” value ([1]; Co-incubated, 10 nM, control 50.00) was 63.00 ± 1.10, the “Anti-oxidant activity … with H2O2” value ([1]; Co-incubated, 100 nM, control 50.00) was 65.75 ± 1.40 and the “Anti-oxidant activity … with H2O2” value ([1]; Pre-incubated, 10 pM, control 50.00) was 53.18 ± 3.25. The “Anti-oxidant activity … with H2O2” value ([1]; Pre-incubated, 100 pM, control 50.00) was 55.13 ± 1.50, the “Anti-oxidant activity … with H2O2” value ([1]; Pre-incubated, 1 nM, control 50.00) was 57.00 ± 1.25 and the “Anti-oxidant activity … with H2O2” value ([1]; Pre-incubated, 10 nM, control 50.00) was 61.40 ± 0.25. The “Anti-oxidant activity … with H2O2” value ([1]; Pre-incubated, 100 nM, control 50.00) was 67.25 ± 2.25, the “protection” value ([1]; pM-nM doses) was “mild protection” and the “Anti-diabetic activity (glucose consumption)” value (“Anti-diabetic activity” for short) ([4]; 1 nM) was 1.58 ± 0.10. For the same compound, the “Anti-diabetic activity” value ([4]; 5 nM) was 1.78 ± 1.10, the “Anti-diabetic activity” value ([4]; 25 nM) was 2.12 ± 0.09 and the “Anti-diabetic activity” value ([4]; 125 nM) was 2.35 ± 0.12. For the same compound, the “Anti-diabetic activity” value ([4]; 625 nM) was 2.60 ± 0.10, the “glucose consumption” value ([4]; differentiated L6-myotubes, dose dependent) was “accelerated glucose consumption” and the Cell viability ([5]; 1 pM) was 97.96 ± 1.10. It also gave a Cell viability ([5]; 10 pM) of 97.50 ± 2.05, a Cell viability ([5]; 100 pM) of 96.52 ± 2.70 and a Cell viability ([5]; 1 nM) of 94.80 ± 1.32. It also gave a Cell viability ([5]; 10 nM) of 91.66 ± 1.60, a Cell viability ([5]; 100 nM) of 84.45 ± 1.30 and a Cell viability ([5]; 1 μM) of 83.20 ± 1.90. For the same compound, the Cell viability ([5]; 10 μM) was 81.98 ± 1.70, the “Anti-oxidant activity … with H2O2” value ([2]; Co-incubated, 1 pM, control 55.54) was 56.95 ± 3.60 and the “Anti-oxidant activity … with H2O2” value ([2]; Co-incubated, 10 pM, control 55.54) was 57.04 ± 2.00. For the same compound, the “Anti-oxidant activity … with H2O2” value ([2]; Co-incubated, 0.1 nM, control 55.54) was 60.10 ± 1.41, the “Anti-oxidant activity … with H2O2” value ([2]; Co-incubated, 1 nM, control 55.54) was 61.75 ± 2.16 and the “Anti-oxidant activity … with H2O2” value ([2]; Co-incubated, 10 nM, control 55.54) was 65.83 ± 0.81. The “Anti-oxidant activity … with H2O2” value ([2]; Pre-incubated, 1 pM, control 55.54) was 55.32 ± 1.48, the “Anti-oxidant activity … with H2O2” value ([2]; Pre-incubated, 10 pM, control 55.54) was 61.67 ± 2.10 and the “Anti-oxidant activity … with H2O2” value ([2]; Pre-incubated, 0.1 nM, control 55.54) was 65.18 ± 1.95. For the same compound, the “Anti-oxidant activity … with H2O2” value ([2]; Pre-incubated, 1 nM, control 55.54) was 67.05 ± 2.40, the “Anti-oxidant activity … with H2O2” value ([2]; Pre-incubated, 10 nM, control 55.54) was 69.58 ± 2.55 and the “anti-oxidant activity” value ([2]; βTC6 cells challenged with hydrogen peroxide) was “potent anti-oxidant activity”. For the same compound, the “protection” value ([2]; βTC6 insulinoma cells) was “Mild Protection”, the Cell viability ([6]; 10 pM) was 100.00 ± 0.10 and the Cell viability ([6]; 100 pM) was 99.99 ± 0.54. The Cell viability ([6]; 1 nM) was 99.45 ± 0.48, the Cell viability ([6]; 10 nM) was 98.30 ± 1.80 and the Cell viability ([6]; 100 nM) was 98.90 ± 1.06. For the same compound, the Cell viability ([6]; 1 μM) was 95.15 ± 1.58, the Cell viability ([6]; 10 μM) was 89.26 ± 1.30 and the Cell viability ([6]; 100 μM) was 83.10 ± 1.67. For the same compound, the “toxicity to the cell” value ([6]; 3T3-L1 cells, 1 μM) was “non-toxic”, the “Anti-oxidant activity … with H2O2” value ([3]; Co-incubated, 10 pM, control 60.10) was 56.13 ± 6.40 and the “Anti-oxidant activity … with H2O2” value ([3]; Co-incubated, 100 pM, control 60.10) was 60.50 ± 5.50. The “Anti-oxidant activity … with H2O2” value ([3]; Co-incubated, 1 nM, control 60.10) was 63.91 ± 5.04, the “Anti-oxidant activity … with H2O2” value ([3]; Co-incubated, 10 nM, control 60.10) was 67.53 ± 8.12 and the “Anti-oxidant activity … with H2O2” value ([3]; Co-incubated, 100 nM, control 60.10) was 71.70 ± 6.16. The “Anti-oxidant activity … with H2O2” value ([3]; Pre-incubated, 10 pM, control 60.10) was 58.70 ± 4.70, the “Anti-oxidant activity … with H2O2” value ([3]; Pre-incubated, 100 pM, control 60.10) was 63.30 ± 3.16 and the “Anti-oxidant activity … with H2O2” value ([3]; Pre-incubated, 1 nM, control 60.10) was 66.12 ± 5.85. The “Anti-oxidant activity … with H2O2” value ([3]; Pre-incubated, 10 nM, control 60.10) was 66.70 ± 3.12, the “Anti-oxidant activity … with H2O2” value ([3]; Pre-incubated, 100 nM, control 60.10) was 70.00 ± 5.95 and the “protection” value ([3]; pM-nM doses) was “mild protection”.
“Insulin: reference line in the L6-myotubes glucose consumption table” was tested, and the “Anti-diabetic activity” value ([4]; Insulin line, concentration not given) was 3.70 ± 0.15.
